Source: patent EP2823816A1, “Inhibitors of Neuropilin and use thereof for the treatment of Neuropilin-related diseases” (Tragex Pharma, priority 2013, dated 2015)

Columns and labels:
[1] = tested on: MDA-MB-231 cells; test: In vivo xenograft study, tumor growth; details: NOD-SCID IL-2Rγ-/- mice, MDA-MB-231 xenograft, 10 or 50 mg/kg, oral gavage three times a week, Figure 5B
Experimental: (§1) Female (NOD-SCID, IL-2Rγ^-/-) mice 5-6 weeks old were injected subcutaneously with MDA-MB-231 cells (5.10^6) at a single site on their right flanks. Tumors were allowed to grow to about 100 mm^3 before being pair-matched by tumor size into treatment groups (8 mice/group). One group was treated with vehicles (8 mice receiving cremofor 12.5%/ethanol 12.5%/ H2O), one group was treated with 10 mg/kg of the compound 1 of the invention (8 mice receiving compound 1 + cremofor 12.5%/ethanol 12.5%/ H2O), one group was treated with 50 mg/kg of the compound 1 of the invention (8 mice receiving compound 1+ cremofor 12.5%/ethanol 12.5%/ H2O). All groups received 3 times a week by oral gavages approximately 100 µL of a solution containing the compound 1 of the invention. Mice were weighed regularly to assess toxicity of the treatments and the tumors were measured with calipers (width x width x length x Pi/6) to determine tumor growth. Mice survival was assessed during the study and metastatic development was investigated in lung, spleen and liver.

[2] = In vivo xenograft study, body weight; details: NOD-SCID IL-2Rγ-/- mice, both tested doses (10 or 50 mg/kg), oral gavage three times a week, Figure 5A
Experimental: as §1

Structure (SMILES): CCOc1ccccc1NC(=O)c1ccc(C)c(S(=O)(=O)Nc2ccc(C)cc2)c1 [Compound 1, N-(2-ethoxyphenyl)-4-methyl-3-(N-(p-tolyl)sulfamoyl)benzamide]
- development of tumors (tumor size) [1]: inhibits the development of tumors
- body weight (toxicity) [2]: no significant change in body weight
